From the kinase profiling compilation of Christmann-Franck et al. (2016)
Values joined by “and” are separate entries in the source; they are usually repeats but may differ in a detail not shown here. Identical values can stand only once.

Experiments:
Assay in all cases: radiometric filter-binding kinase assay, Kinase HotSpot
Settings in all cases: compound 0.5 µM; ATP 10 µM
[1] = target: ABL1 (human) (UniProt P00519)
[2] = target: AURKC (human) (UniProt Q9UQB9)
[3] = target: BLK (human) (UniProt P51451)
[4] = target: BMX (human) (UniProt P51813)
[5] = target: BTK (human) (UniProt Q06187)
[6] = target: CDK2 CCNE1 (human) (UniProt P24941+P24864)
[7] = target: CDK4 CCND3 (human) (UniProt P30281+P11802)
[8] = target: CDK9 CCNT1 (human) (UniProt P50750+O60563)
[9] = target: CSNK2A1 (human) (UniProt P68400)
[10] = target: DAPK1 (human) (UniProt P53355)
[11] = target: DSTYK (human) (UniProt Q6XUX3)
[12] = target: DYRK4 (human) (UniProt Q9NR20)
[13] = target: EPHA1 (human) (UniProt P21709)
[14] = target: EPHA2 (human) (UniProt P29317)
[15] = target: FGFR1 (human) (UniProt P11362)
[16] = target: FLT3 (human) (UniProt P36888)
[17] = target: GRK6 (human) (UniProt P43250)
[18] = target: GRK7 (human) (UniProt Q8WTQ7)
[19] = target: IKBKB (human) (UniProt O14920)
[20] = target: IRAK1 (human) (UniProt P51617)
[21] = target: KIT (human) (UniProt P10721)
[22] = target: LTK (human) (UniProt P29376)
[23] = target: LYN (human) (UniProt P07948)
[24] = target: MAP3K7 TAB1 (human) (UniProt O43318+Q15750)
[25] = target: MAP4K2 (human) (UniProt Q12851)
[26] = target: MAP4K5 (human) (UniProt Q9Y4K4)
[27] = target: MAPK9 (human) (UniProt P45984)
[28] = target: MYLK (human) (UniProt Q15746)
[29] = target: NEK6 (human) (UniProt Q9HC98)
[30] = target: NEK7 (human) (UniProt Q8TDX7)
[31] = target: PKN1 (human) (UniProt Q16512)
[32] = target: PNCK (human) (UniProt Q6P2M8)
[33] = target: PRKD3 (human) (UniProt O94806)
[34] = target: ROCK2 (human) (UniProt O75116)
[35] = target: RPS6KA4 KD2 (human) (UniProt O75676)
[36] = target: SIK2 (human) (UniProt Q9H0K1)
[37] = target: STK11 (human) (UniProt Q15831)
[38] = target: STK24 (human) (UniProt Q9Y6E0)
[39] = target: TGFBR1 (human) (UniProt P36897)
[40] = target: TGFBR2 (human) (UniProt P37173)
[41] = target: TYRO3 (human) (UniProt Q06418)

Sequence of NEK7 (human) (Q8TDX7 whole entry, looked up): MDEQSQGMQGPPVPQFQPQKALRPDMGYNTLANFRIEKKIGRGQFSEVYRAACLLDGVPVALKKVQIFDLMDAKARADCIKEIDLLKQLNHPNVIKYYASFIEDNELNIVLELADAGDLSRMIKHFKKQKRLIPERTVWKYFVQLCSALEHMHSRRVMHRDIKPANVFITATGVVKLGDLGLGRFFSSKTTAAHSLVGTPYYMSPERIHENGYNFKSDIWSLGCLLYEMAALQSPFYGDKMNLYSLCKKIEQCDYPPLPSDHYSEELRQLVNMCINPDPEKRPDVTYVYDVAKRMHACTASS
Sequence of AURKC (human) (Q9UQB9 whole entry, looked up): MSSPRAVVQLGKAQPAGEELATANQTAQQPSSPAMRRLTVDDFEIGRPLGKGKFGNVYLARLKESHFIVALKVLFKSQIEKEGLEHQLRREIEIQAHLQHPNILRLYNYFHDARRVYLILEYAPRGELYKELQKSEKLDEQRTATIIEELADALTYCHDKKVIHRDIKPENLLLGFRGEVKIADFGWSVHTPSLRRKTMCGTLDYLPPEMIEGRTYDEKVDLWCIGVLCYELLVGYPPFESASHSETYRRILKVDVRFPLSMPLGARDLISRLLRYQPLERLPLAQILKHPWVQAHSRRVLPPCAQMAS
Sequence of BTK (human) (Q06187 whole entry, looked up): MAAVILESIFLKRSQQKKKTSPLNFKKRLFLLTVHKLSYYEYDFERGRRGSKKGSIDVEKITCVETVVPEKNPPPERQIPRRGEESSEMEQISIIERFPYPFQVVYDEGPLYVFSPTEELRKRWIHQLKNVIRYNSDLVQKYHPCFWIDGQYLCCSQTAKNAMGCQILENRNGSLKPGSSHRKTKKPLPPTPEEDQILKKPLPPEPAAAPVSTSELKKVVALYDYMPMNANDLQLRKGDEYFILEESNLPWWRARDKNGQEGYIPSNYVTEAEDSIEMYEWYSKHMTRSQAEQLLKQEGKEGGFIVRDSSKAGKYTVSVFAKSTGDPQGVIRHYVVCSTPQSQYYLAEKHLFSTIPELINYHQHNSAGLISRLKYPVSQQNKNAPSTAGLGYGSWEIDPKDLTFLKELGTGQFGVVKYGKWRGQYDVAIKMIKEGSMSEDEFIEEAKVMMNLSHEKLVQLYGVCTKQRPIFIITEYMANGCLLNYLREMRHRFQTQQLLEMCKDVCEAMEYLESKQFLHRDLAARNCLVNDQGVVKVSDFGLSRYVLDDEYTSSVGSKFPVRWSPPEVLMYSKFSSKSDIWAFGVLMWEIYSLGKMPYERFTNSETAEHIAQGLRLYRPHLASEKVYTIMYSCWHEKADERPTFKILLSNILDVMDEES
Sequence of ABL1 (human) (P00519 whole entry, looked up): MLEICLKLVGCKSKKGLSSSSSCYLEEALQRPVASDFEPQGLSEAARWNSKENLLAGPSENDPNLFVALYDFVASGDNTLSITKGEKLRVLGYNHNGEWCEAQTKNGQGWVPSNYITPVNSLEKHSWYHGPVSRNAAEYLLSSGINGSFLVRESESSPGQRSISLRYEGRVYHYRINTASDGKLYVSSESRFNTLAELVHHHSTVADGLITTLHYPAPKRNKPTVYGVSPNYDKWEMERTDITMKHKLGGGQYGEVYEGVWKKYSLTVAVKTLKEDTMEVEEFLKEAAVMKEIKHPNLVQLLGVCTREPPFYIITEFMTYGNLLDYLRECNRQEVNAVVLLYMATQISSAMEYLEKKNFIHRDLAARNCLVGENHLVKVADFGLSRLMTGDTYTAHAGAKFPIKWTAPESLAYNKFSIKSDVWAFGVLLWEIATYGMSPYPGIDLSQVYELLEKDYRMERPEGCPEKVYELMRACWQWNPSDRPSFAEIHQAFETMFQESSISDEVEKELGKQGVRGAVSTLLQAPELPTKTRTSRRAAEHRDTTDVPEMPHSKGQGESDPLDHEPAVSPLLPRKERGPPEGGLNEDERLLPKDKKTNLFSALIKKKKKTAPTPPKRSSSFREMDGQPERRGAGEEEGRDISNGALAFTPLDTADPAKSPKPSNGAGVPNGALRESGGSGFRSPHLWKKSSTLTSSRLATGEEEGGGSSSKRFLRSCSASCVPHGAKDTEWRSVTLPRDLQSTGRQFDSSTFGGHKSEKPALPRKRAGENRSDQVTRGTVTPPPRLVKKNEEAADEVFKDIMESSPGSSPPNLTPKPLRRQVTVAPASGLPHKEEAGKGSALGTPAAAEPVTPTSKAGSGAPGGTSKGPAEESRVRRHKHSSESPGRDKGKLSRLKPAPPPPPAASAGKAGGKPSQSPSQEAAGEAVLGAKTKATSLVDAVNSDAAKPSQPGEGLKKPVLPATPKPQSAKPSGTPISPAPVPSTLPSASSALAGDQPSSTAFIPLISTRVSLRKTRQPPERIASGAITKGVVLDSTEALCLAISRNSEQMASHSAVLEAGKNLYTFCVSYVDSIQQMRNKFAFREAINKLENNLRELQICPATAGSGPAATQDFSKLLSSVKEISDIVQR
Sequence of PRKD3 (human) (O94806 whole entry, looked up): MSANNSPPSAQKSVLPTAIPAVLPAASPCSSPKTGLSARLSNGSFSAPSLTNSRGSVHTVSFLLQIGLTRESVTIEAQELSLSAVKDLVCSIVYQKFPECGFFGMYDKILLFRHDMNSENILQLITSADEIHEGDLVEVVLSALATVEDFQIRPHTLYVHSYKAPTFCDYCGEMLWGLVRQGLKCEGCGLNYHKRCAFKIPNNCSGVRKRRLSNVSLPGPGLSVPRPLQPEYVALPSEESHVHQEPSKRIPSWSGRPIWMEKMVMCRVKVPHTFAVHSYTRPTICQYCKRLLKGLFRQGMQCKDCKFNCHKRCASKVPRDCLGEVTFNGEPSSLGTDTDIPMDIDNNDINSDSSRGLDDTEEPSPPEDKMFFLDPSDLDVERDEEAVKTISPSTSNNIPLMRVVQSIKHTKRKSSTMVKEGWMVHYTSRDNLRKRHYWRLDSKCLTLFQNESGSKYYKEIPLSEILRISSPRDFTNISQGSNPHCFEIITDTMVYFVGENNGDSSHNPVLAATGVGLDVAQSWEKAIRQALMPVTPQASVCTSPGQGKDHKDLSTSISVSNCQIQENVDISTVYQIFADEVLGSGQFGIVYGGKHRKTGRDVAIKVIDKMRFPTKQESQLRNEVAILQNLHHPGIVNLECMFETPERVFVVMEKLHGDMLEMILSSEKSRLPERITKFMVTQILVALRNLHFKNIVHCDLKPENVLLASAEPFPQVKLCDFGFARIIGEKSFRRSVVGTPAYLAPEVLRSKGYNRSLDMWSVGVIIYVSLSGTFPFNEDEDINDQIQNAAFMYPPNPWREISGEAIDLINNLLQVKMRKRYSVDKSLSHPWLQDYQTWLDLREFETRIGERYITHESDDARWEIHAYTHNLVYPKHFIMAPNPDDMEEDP
Sequence of BLK (human) (P51451 whole entry, looked up): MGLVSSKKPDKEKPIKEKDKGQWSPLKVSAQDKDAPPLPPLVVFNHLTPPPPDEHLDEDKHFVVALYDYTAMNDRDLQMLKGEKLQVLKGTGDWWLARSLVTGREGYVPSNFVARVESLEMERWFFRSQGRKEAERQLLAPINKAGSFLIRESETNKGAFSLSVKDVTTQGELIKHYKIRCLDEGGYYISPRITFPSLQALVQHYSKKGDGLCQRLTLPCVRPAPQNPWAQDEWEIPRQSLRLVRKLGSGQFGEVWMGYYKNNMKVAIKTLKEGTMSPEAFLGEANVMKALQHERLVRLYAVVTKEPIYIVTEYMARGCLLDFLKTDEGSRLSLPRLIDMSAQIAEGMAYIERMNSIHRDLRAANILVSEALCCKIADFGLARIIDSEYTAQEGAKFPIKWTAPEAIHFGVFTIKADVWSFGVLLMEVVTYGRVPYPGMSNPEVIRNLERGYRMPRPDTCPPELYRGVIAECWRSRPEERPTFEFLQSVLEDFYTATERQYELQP
Sequence of IRAK1 (human) (P51617 whole entry, looked up): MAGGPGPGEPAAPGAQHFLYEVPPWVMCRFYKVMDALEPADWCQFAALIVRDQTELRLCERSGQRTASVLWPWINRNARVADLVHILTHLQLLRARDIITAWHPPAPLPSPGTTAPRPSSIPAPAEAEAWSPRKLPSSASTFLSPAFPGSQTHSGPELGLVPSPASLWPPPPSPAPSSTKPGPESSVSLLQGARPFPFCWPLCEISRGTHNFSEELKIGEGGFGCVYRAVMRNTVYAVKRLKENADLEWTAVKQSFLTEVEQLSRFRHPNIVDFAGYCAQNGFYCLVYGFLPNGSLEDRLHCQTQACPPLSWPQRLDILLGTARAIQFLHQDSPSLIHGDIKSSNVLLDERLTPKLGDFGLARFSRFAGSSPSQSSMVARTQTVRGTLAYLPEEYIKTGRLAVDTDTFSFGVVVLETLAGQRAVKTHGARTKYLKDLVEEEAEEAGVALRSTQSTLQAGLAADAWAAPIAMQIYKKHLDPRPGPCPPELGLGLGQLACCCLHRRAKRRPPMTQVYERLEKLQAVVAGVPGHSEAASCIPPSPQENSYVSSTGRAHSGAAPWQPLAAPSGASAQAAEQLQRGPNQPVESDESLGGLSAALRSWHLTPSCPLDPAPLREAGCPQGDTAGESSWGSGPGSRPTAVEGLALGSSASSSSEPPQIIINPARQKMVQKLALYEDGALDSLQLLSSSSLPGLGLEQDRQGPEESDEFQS
Sequence of NEK6 (human) (Q9HC98 whole entry, looked up): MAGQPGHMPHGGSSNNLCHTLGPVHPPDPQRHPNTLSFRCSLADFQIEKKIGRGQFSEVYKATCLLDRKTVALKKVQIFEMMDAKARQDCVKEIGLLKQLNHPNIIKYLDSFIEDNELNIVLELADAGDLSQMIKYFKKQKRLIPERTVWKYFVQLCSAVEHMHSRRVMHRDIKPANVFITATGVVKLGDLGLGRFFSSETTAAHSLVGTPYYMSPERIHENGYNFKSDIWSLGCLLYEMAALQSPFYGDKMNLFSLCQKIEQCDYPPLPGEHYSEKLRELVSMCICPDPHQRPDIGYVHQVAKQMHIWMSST

## CC(=O)O/N=C1\C(=C2\C(=O)Nc3cc(Br)ccc32)Nc2ccccc21
[1]
  residual activity: 43.1%
[2]
  residual activity: 86%
[3]
  residual activity: 25.6%
[4]
  residual activity: 67.2%
[5]
  residual activity: 27.3%
[6]
  residual activity: 24.7%
[7]
  residual activity: 86.2%
[8]
  residual activity: 91.5%
[9]
  residual activity: 81.8%
[10]
  residual activity: 86.8%
[11]
  residual activity: 81.1%
[12]
  residual activity: 96.7%
[13]
  residual activity: 83.2%
[14]
  residual activity: 95.8%
[15]
  residual activity: 68.8%
[16]
  residual activity: 21.6%
[17]
  residual activity: 88.5%
[18]
  residual activity: 99.5%
[19]
  residual activity: 92.4%
[20]
  residual activity: 67.4%
[21]
  residual activity: 62.3%
[22]
  residual activity: 83.3%
[23]
  residual activity: 28.1% and 52.4%
[24]
  residual activity: 97.4%
[25]
  residual activity: 44%
[26]
  residual activity: 24.1%
[27]
  residual activity: 90.5%
[28]
  residual activity: 74.2%
[29]
  residual activity: 100%
[30]
  residual activity: 91.9%
[31]
  residual activity: 96.1%
[32]
  residual activity: 96.3%
[33]
  residual activity: 84.9%
[34]
  residual activity: 91.7%
[35]
  residual activity: 97.6%
[36]
  residual activity: 54.6%
[37]
  residual activity: 73.6%
[38]
  residual activity: 70.9%
[39]
  residual activity: 101%
[40]
  residual activity: 132%
[41]
  residual activity: 69.8%

## O=C1NC(=O)C(c2cn(CCCO)c3ncccc23)=C1c1cnccn1
[1]
  residual activity: 98.9%
[2]
  residual activity: 113%
[3]
  residual activity: 87.1%
[4]
  residual activity: 97.8%
[5]
  residual activity: 93.7%
[6]
  residual activity: 85.1%
[7]
  residual activity: 95.9%
[8]
  residual activity: 88.3%
[9]
  residual activity: 78.9%
[10]
  residual activity: 74.4%
[11]
  residual activity: 78%
[12]
  residual activity: 98.4%
[13]
  residual activity: 73.9%
[14]
  residual activity: 105%
[15]
  residual activity: 81.2%
[16]
  residual activity: 87.8%
[17]
  residual activity: 102%
[18]
  residual activity: 118%
[19]
  residual activity: 87.3%
[20]
  residual activity: 76.6%
[21]
  residual activity: 93%
[22]
  residual activity: 90.9%
[23]
  residual activity: 101% and 112%
[24]
  residual activity: 95.5%
[25]
  residual activity: 67.4%
[26]
  residual activity: 37.5%
[27]
  residual activity: 100%
[28]
  residual activity: 74%
[29]
  residual activity: 94.2%
[30]
  residual activity: 95.4%
[31]
  residual activity: 97.8%
[32]
  residual activity: 94.9%
[33]
  residual activity: 78.2%
[34]
  residual activity: 96%
[35]
  residual activity: 101%
[36]
  residual activity: 101%
[37]
  residual activity: 83.1%
[38]
  residual activity: 72.1%
[39]
  residual activity: 98.5%
[40]
  residual activity: 122%
[41]
  residual activity: 93.7%

## CCn1cnc2c(Nc3cccc(Cl)c3)nc(N[C@@H]3CCCC[C@@H]3N)nc21
[1]
  residual activity: 94%
[2]
  residual activity: 94.5%
[3]
  residual activity: 87.1%
[4]
  residual activity: 90.7%
[5]
  residual activity: 82.5%
[6]
  residual activity: 16.8%
[7]
  residual activity: 71.5%
[8]
  residual activity: 53.7%
[9]
  residual activity: 84.2%
[10]
  residual activity: 79.1%
[11]
  residual activity: 97.8%
[12]
  residual activity: 95.1%
[13]
  residual activity: 79.6%
[14]
  residual activity: 86.7%
[15]
  residual activity: 85.7%
[16]
  residual activity: 12.7%
[17]
  residual activity: 99.6%
[18]
  residual activity: 97.9%
[20]
  residual activity: 81.7%
[21]
  residual activity: 101%
[22]
  residual activity: 93.8%
[24]
  residual activity: 98.9%
[25]
  residual activity: 87.4%
[26]
  residual activity: 91.1%
[27]
  residual activity: 102%
[28]
  residual activity: 91%
[29]
  residual activity: 102%
[30]
  residual activity: 86%
[31]
  residual activity: 69.9%
[32]
  residual activity: 98.5%
[33]
  residual activity: 90.6%
[34]
  residual activity: 90.6%
[35]
  residual activity: 88.2%
[36]
  residual activity: 89.1%
[37]
  residual activity: 78%
[38]
  residual activity: 79%
[39]
  residual activity: 95.6%
[40]
  residual activity: 91.2%
[41]
  residual activity: 98.3%
